Measured values taken from BindingDB's records for patent US11590142 (Bugworks Research, 2023).

Molecular target: DNA gyrase (Escherichia coli, UniProt P0AES4+P0AES6)
Experiment: Enzyme Inhibition Assay
Protocol: The reactions were then started with the addition of 60 ng relaxed pBR322 plasmid DNA and continued for 45 min at 37° C. The reaction mixture contained 35 mM Tris.HCl (pH 7.5), 24 mM KCl, 1.8 mM spermidine, 4 mM MgCl2, 2 mM DTT, 6.5% (w/v) glycerol, 0.1 mg/mL BSA, and 1 mM ATP. The reaction was then stopped by addition of 0.75 L of Proteinase K (20 mg/mL) and 3 μL of 2% SDS and further incubated at 37° C. for 30 min. This was followed by the addition of 4 μL of STEB (40% (w/v) sucrose, 100 mM Tris-HCl pH8, 1 mM EDTA, 0.5 mg/ml Bromophenol Blue), and the supercoiled/relaxed forms of plasmid DNA were separated by agarose gel electrophoresis. The 1% agarose gels were run for 3 h at 4V/cm in 1×TAE (40 mM Tris, 20 mM Acetic acid, 1 mM EDTA). To visualize the DNA the gels were stained for 10 min with 0.7 g/mL ethidium bromide and excess dye was removed by several washes with water. IC50 were determined by quantifying the supercoiled and relaxed DNA in each of the reactions from a gel image by a densitometric method using the Quantity One Software (Bio-rad).

Cn1c(=O)cnc2ccc(OCCNC[C@H]3CN(c4ccc5c(n4)NC(=O)CO5)C(=O)O3)nc21 [US11590142, Compound 3]
IC50: 47 nM

Cn1c(=O)ccc2ncc(OCCNC[C@H]3CN(c4ccc5c(n4)NC(=O)CO5)C(=O)O3)nc21 [US11590142, Compound 5]
IC50: 32 nM
